These results are taken from patent US8778871B2 (Takeda Pharmaceutical Company Limited, priority 2004, dated 2014).

Non-standard residues stand in square brackets, D forms with d. Primed or numbered codes have the meaning given here. No end group written: not given here. *: point of attachment. Cyclohexanecarbonyl = O=C(C1CCCCC1)*; Arg(Me) = CNC(=N)NCCC[C@H](N)C(=O)O; Lys(Me2) = CN(C)CCCC[C@H](N)C(=O)O; hArg = N=C(N)NCCCC[C@H](N)C(=O)O; hPhe = N[C@@H](CCc1ccccc1)C(=O)O; NMeN = CN[C@@H](CC(N)=O)C(=O)O; Dap = NC[C@H](N)C(=O)O; Aib = CC(C)(N)C(=O)O; Bz = O=C(c1ccccc1)*; GABA = NCCCC(=O)O; azaGly = NNC(=O)O; For = O=C*

The target of the assay is T1, hOT7T175 (Homo sapiens, UniProt Q969F8, L364H).
T1 construct: expressed in transfected cells
T1 sequence (Q969F8 whole entry L364H): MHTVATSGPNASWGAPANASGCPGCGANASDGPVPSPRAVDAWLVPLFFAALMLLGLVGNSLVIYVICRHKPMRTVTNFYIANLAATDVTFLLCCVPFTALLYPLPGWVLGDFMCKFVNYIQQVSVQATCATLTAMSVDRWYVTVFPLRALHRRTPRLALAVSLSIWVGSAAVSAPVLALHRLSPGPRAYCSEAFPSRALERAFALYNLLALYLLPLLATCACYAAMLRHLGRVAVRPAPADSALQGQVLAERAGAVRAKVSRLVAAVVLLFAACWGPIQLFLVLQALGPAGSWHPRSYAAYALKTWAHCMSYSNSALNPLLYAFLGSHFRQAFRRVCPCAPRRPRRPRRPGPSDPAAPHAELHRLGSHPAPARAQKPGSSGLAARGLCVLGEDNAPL
Type of assay: cell-based. The conditions noted are these: hOT7T175/CHO, FLIPR, evaluation for 40 seconds after initiation of the reaction.
Experimental: The intracellular Ca ion level-increasing activity was measured using FLIPR as in TEST EXAMPLE 2.
In the case of “Ac-[dY][dW]NTF[azaGly]L[hArg]W-NH2 [Compound No. 645]”, the “Specific Act. (EC50/MS10 EC50)” value is 1.1.
The figure for “Ac-[dY][dW]NT[dF][azaGly]L[Arg(Me)]W-NH2 [Compound No. 597]” is 0.6; for “Ac-[dY][dW]NTA[azaGly]L[Arg(Me)]W-NH2 [Compound No. 631]” it is 2.
The figure for “Bz-NTF[azaGly]L[Arg(Me)]W-NH2 [Compound No. 522]” is 1.9.
The figure for “Ac-[dY][dW]NTF[azaGly]L[Arg(Me)][hPhe]-NH2 [Compound No. 594]” is 2.1.
Turning to “Me-D-Tyr-D-Trp-Asn-Thr-Phe-AzaGly-Leu-Arg(Me)-Trp-NH2 [Compound No. 570]”, the “Specific Act. (EC50/MS10 EC50)” value is 0.5.
Consider “Ac-D-Tyr-D-Trp-Asn-Thr-PheΨ(CH2NH)Gly-Leu-Arg(Me)-Trp-NH2 [Compound No. 569]”, for which the “Specific Act. (EC50/MS10 EC50)” value is reported as 0.5.
Turning to “3-Phenylpropionyl-Asn-Aze(2)-Phe-AzaGly-Leu-Arg(Me)-Trp-NH2 [Compound No. 532]”, the “Specific Act. (EC50/MS10 EC50)” value amounted to 1.0.
To “[dR][dR][dR][GABA][dY][dW]NTF[azaGly]L[Arg(Me)]W-NH2 [Compound No. 557]” belongs 3.2; to “Ac-D-Tyr-D-Trp-Alb-Ser-Phe-AzaGly-Leu-Arg(Me)-Trp-NH2 [Compound No. 579]”, 0.6.
For the substance “Ac-[dY][dW][NMeN]TF[azaGly]L[Arg(Me)]W-NH2 [Compound No. 655]”, the “Specific Act. (EC50/MS10 EC50)” value was 4.7.
On to “D-Arg-Acp-D-Tyr-D-Trp-Asn-Thr-Phe-AzaGly-Leu-Arg(Me)-Trp-NH2 [Compound No. 541]”, for which the “Specific Act. (EC50/MS10 EC50)” value is listed as 2.0.
The figure for “D-Trp-D-Pya(4)-Asn-Ser-Phe-AzaGly-Leu-Arg(Me)-Trp-NH2 [Compound No. 572]” is 0.7; for “Ac-[dY][dW]NTF[azaGly]F[Arg(Me)]W-NH2 [Compound No. 643]” it is 2.5; for “Ac-D-Tyr-D-Trp-Asp(NMe2)-Thr-Phe-AzaGly-Leu-Arg(Me)-Trp-NH2 [Compound No. 703]” it is 3.7.
The figure for “Glycoloyl-D-Tyr-D-Trp-Asn-Thr-Phe-AzaGly-Leu-Arg(Me)-Trp-NH2 (Glycoloyl-[dY][dW]NTF[azaGly]L[Arg(Me)]W-NH2) [Compound No. 681]” is 1.2; for “D-Arg-D-Arg-Acp-D-Tyr-D-Trp-Asn-Thr-Phe-AzaGly-Leu-Arg(Me)-Trp-NH2 [Compound No. 542]” it is 1.4; for “Ac-[dY][dW]NTE[azaGly]L[Arg(Me)]W-NH2 [Compound No. 634]” it is 10.5.
The figure for “Ac-[dY][dW]NT[dF]GL[Arg(Me)]W-NH2 [Compound No. 601]” is 3.1; for “D-Tyr-D-Pya(4)-Asn-Ser-Phe-AzaGly-Leu-Arg-Phe-NH2 [Compound No. 521]” it is 2.4.
Turning to “Ac-[dY][dW]NTF[azaGly]S[Arg(Me)]W-NH2 [Compound No. 644]”, the “Specific Act. (EC50/MS10 EC50)” value turned out to be 2.5.
The figure for “D-Tyr-D-Pya(4)-Asn-Phg-Phe-AzaGly-Leu-Arg(Me)-Trp-NH2 [Compound No. 530]” is 3.4; for “Ac-[dY][dW]NTF[azaGly]L[Lys(Me2)]W-NH2 [Compound No. 610]” it is 1.9.
The figure for “Ac-D-Tyr-D-Trp-Asn-Thr-Phe-Gly-Aib-Arg(Me)-Trp-NH2 (Ac-[dY][dW]NTFG[Aib][Arg(Me)]W-NH2; SMILES CNC(=N)NCCC[C@H](NC(=O)C(C)(C)NC(=O)CNC(=O)[C@H](Cc1ccccc1)NC(=O)[C@@H](NC(=O)[C@H](CC(N)=O)NC(=O)[C@@H](Cc1c[nH]c2ccccc12)NC(=O)[C@@H](Cc1ccc(O)cc1)NC(C)=O)[C@@H](C)O)C(=O)N[C@@H](Cc1c[nH]c2ccccc12)C(N)=O) [Compound No. 700]” is 0.8; for “Ac-[dY][dW]NTL[azaGly]L[Arg(Me)]W-NH2 [Compound No. 632]” it is 1.1; for “Ac-[dY][dW]TSF[azaGly]L[Arg(Me)]W-NH2 [Compound No. 578]” it is 0.8.
The figure for “Amidino-D-Trp-Asn-Thr-Phe-AzaGly-Leu-Arg(Me)-Trp-NH2 (Amidino-[dW]NTF[azaGly]L[Arg(Me)]W-NH2) [Compound No. 679]” is 1.8; for “Ac-D-Tyr-D-Trp-Asn-Thr-Phe-AzaGly-Leu-Pya(4)-Trp-NH2 (Ac-[dY][dW]NTF[azaGly]L-{Pya(4)-Trp-NH2}) [Compound No. 688]” it is 9.7.
Regarding “Ac-D-Tyr-D-Trp-Gly-Ser-Phe-AzaGly-Leu-Arg(Me)-Trp-NH2 (Ac-[dY][dW]GSF[azaGly]L[Arg(Me)]W-NH2; SMILES CNC(=N)NCCC[C@H](NC(=O)[C@H](CC(C)C)NC(=O)NNC(=O)[C@H](Cc1ccccc1)NC(=O)[C@H](CO)NC(=O)CNC(=O)[C@@H](Cc1c[nH]c2ccccc12)NC(=O)[C@@H](Cc1ccc(O)cc1)NC(C)=O)C(=O)N[C@@H](Cc1c[nH]c2ccccc12)C(N)=O) [Compound No. 686]”, the “Specific Act. (EC50/MS10 EC50)” value is given as 0.6.
The figure for “Ac-[dY][dW]NTK[azaGly]L[Arg(Me)]W-NH2 [Compound No. 633]” is 3.4.
To “3-Phenylpropionyl-Asn-Pro-Phe-AzaGly-Leu-Arg(Me)-Trp-NH2 [Compound No. 524]” belongs 1.1; to “Ac-[dY][dW][Dap](For)SF[azaGly]L[Arg(Me)]W-NH2 [Compound No. 585]”, 0.4; to “Ac-[dY][dW]NTF[azaGly]LR(Et)W-NH2 [Compound No. 609]”, 0.9.
To “Ac-[dY][dW][Dap]SF[azaGly]L[Arg(Me)]W-NH2 [Compound No. 701]” belongs 1.4.
Turning to “D-Tyr-D-Pya(4)-Asn-Pro-Phe-AzaGly-Leu-Arg(Me)-Trp-NH2 [Compound No. 528]”, the “Specific Act. (EC50/MS10 EC50)” value amounted to 1.4.
To “Ac-D-Tyr-D-Trp-Asn-Thr-Phe-AzaGly-Gln-Arg(Me)-Trp-NH2 (Ac-[dY][dW]NTF[azaGly]Q[Arg(Me)]W-NH2; SMILES CNC(=N)NCCC[C@H](NC(=O)[C@H](CCC(N)=O)NC(=O)NNC(=O)[C@H](Cc1ccccc1)NC(=O)[C@@H](NC(=O)[C@H](CC(N)=O)NC(=O)[C@@H](Cc1c[nH]c2ccccc12)NC(=O)[C@@H](Cc1ccc(O)cc1)NC(C)=O)[C@@H](C)O)C(=O)N[C@@H](Cc1c[nH]c2ccccc12)C(N)=O) [Compound No. 682]” belongs 7.3.
To “3-Phenylpropionyl-Asn-Pic(2)-Phe-AzaGly-Leu-Arg(Me)-Trp-NH2 [Compound No. 531]” belongs 1.8.
The figure for “Ac-D-Tyr-D-Trp-Asn-Thr-Phe-AzaGly-Leu-Arg(Me2)asym-Trp-NH2 [Compound No. 607]” is 2.2; for “[dY][dW]NVF[azaGly]L[Arg(Me)]W-NH2 [Compound No. 539]” it is 1.2.
Consider “Cyclohexanecarbonyl-D-Trp-Asn-Thr-Phe-AzaGly-Leu-Arg(Me)-Trp-NH2 (Cyclohexanecarbonyl-[dW]NTF[azaGly]L[Arg(Me)]W-NH2; SMILES CNC(=N)NCCC[C@H](NC(=O)[C@H](CC(C)C)NC(=O)NNC(=O)[C@H](Cc1ccccc1)NC(=O)[C@@H](NC(=O)[C@H](CC(N)=O)NC(=O)[C@@H](Cc1c[nH]c2ccccc12)NC(=O)C1CCCCC1)[C@@H](C)O)C(=O)N[C@@H](Cc1c[nH]c2ccccc12)C(N)=O) [Compound No. 668]”, for which the “Specific Act. (EC50/MS10 EC50)” value came out at 1.2.
To “3-Phenylpropionyl-Asn-D-Pro-Phe-AzaGly-Leu-Arg(Me)-Trp-NH2 [Compound No. 533]” belongs 9.7.
The figure for “Ac-D-Tyr-D-Trp-Asn-Thr-Phe-AzaGly-Leu-Har(Me)-Trp-NH2 [Compound No. 646]” is 1.8; for “Ac-[dY][dW][dN]TF[azaGly]L[Arg(Me)]W-NH2 [Compound No. 653]” it is 1.3.
To “[dR][dR][GABA][dY][dW]NTF[azaGly]L[Arg(Me)]W-NH2 [Compound No. 556]” belongs 2.8.
Take “D-Trp-Asn-Thr-Phe-AzaGly-Leu-Arg(Me)-Trp-NH2 ([dW]NTF[azaGly]L[Arg(Me)]W-NH2; N-terminus assumed; SMILES CNC(=N)NCCC[C@H](NC(=O)[C@H](CC(C)C)NC(=O)NNC(=O)[C@H](Cc1ccccc1)NC(=O)[C@@H](NC(=O)[C@H](CC(N)=O)NC(=O)[C@H](N)Cc1c[nH]c2ccccc12)[C@@H](C)O)C(=O)N[C@@H](Cc1c[nH]c2ccccc12)C(N)=O) [Compound No. 665]”: the “Specific Act. (EC50/MS10 EC50)” value is 1.1.
Regarding “Ac-[dY][dW]SSF[azaGly]L[Arg(Me)]W-NH2 [Compound No. 577]”, the “Specific Act. (EC50/MS10 EC50)” value stood at 0.7.
In the case of “Cyclopropanecarbonyl-Asn-Ser-Phe-AzaGly-Leu-Arg(Me)-Trp-NH2 [Compound No. 534]”, the “Specific Act. (EC50/MS10 EC50)” value worked out at 5.6.
On to “Ac-D-Tyr-D-Trp-Asn-Thr-Phe-AzaGly-γMeLeu-Arg(Me)-Trp-NH2 (Ac-[dY][dW]NTF[azaGly]-{γMeLeu-Arg(Me)-Trp-NH2}) [Compound No. 699]”, for which the “Specific Act. (EC50/MS10 EC50)” value amounted to 1.3.
The figure for “Ac-D-Tyr-D-Pya(4)-Asn-Thr-D-Phe-AzaGly-Leu-Arg(Me)-Trp-NH2 [Compound No. 603]” is 1.7; for “Ac-D-Tyr-D-Trp-Asn-Thr-Phe-AzaGly-Leu-Arg(Me)-D-Trp-NH2 (Ac-[dY][dW]NTF[azaGly]L[Arg(Me)][dW]-NH2; SMILES CNC(=N)NCCC[C@H](NC(=O)[C@H](CC(C)C)NC(=O)NNC(=O)[C@H](Cc1ccccc1)NC(=O)[C@@H](NC(=O)[C@H](CC(N)=O)NC(=O)[C@@H](Cc1c[nH]c2ccccc12)NC(=O)[C@@H](Cc1ccc(O)cc1)NC(C)=O)[C@@H](C)O)C(=O)N[C@H](Cc1c[nH]c2ccccc12)C(N)=O) [Compound No. 689]” it is 2.3.
